# Data published in PMC3688528, “Location of the CD8 T Cell Epitope within the Antigenic Precursor Determines Immunogenicity and Protection against the Toxoplasma gondii Parasite” (PLoS Pathogens, 2013).
# “And” between values parts separate entries of the source, which are not always exact repeats. Identical values can stand only once.
# Columns and labels:
# [1] = tested on: T. gondii-specific CD8 T cells of infected B10.D2 mice; experiment: Ex vivo staining of peptide-specific CD8 T cells with peptide-loaded L^d DimerX; type: cell-based, mouse; settings: B10.D2 mice 4 weeks post-infection; HF10 value in CEP+GRA6II-infected mice; mean +/- s.d.; 3 independent experiments pooled; SD
# Description: (§1) Mice were sacrificed 3 to 4 weeks after infection. Spleens were dissociated into single-cell suspensions in complete RPMI (Invitrogen) supplemented with 10% (vol/vol) FCS (Hyclone). Samples were depleted of erythrocytes with ACK lysis buffer (100 µM EDTA, 160 mM NH4Cl and 10 mM NaHCO3). Leukocytes from the brain were prepared as in [17]. In brief, brains were minced and digested for 1 h at 37°C with 1 mg/ml collagenase (Sigma) and 100 µg/ml DNAseI (Roche) in complete RPMI. Brain suspensions were filtered through 70-µm cell strainers and centrifuged for 10 min at 200 g. Cells were resuspended in 60% (vol/vol) Percoll (GE Healthcare), overlaid on 30% (vol/vol) Percoll and centrifuged 20 min at 1,000 g. Infiltrating mononuclear cells were collected from the gradient interface and the remaining erythrocytes were lyzed with ACK lysis buffer.
# (§2) For other stainings, surfaces were labeled according to standard procedures with flow cytometry buffer (3% (vol/vol) FCS and 1 mM EDTA in PBS). Intracellular IFN-γ was detected with the Cytofix/Cytoperm kit (BD Pharmingen). DimerX H-2L^d:Ig (fusion protein of H-2L^d and immunoglobulin; BD Biosciences) was used according to the manufacturer's instructions and as described in [17]. All flow cytometry data were acquired on an XL Analyzer (Coulter) or a LSRII (Becton Dickinson) and were analyzed with FlowJo software (Tree Star).
# L^d MHC I molecule = molecular target: T1, L^d MHC I molecule (Mus musculus, UniProt P01897); experiment: MHC I stabilization assay on TAP-deficient RMA-S.L^d cells; type: binding; settings: flow cytometry MFI
# T1 construct: expressed in transfected cells; host or cells: RMA-S.L^d cells (TAP-deficient), gift from T. Hansen
# T1 sequence (P01897 25-362): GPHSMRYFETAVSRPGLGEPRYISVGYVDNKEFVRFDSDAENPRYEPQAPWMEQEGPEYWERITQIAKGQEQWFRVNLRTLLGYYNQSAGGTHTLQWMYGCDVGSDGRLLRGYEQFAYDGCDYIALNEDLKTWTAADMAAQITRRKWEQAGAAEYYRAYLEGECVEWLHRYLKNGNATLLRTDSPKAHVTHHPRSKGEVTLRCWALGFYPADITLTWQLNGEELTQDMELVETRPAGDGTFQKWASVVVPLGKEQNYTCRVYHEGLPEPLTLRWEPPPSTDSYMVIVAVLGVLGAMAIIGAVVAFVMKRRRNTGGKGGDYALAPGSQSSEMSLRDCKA
# T1 sequence (P01887 21-119 partner): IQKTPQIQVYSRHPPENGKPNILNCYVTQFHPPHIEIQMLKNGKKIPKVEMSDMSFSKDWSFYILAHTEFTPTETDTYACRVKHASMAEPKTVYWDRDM
# Excerpt: We took advantage of the genetic diversity among three common T. gondii strains (type I, II and III). While the GRA4-derived SM9 and ROP7-derived IF9 peptides are conserved (data not shown and ToxoDB.org), the GRA6-derived HF10 peptide is polymorphic between type II and type I/III strains. Within the last 10 residues of GRA6, four non-synonymous single-nucleotide polymorphisms differentiate the type II sequence (HF10: HPGSVNEFDF) from the type I/III sequence (HY10: HPERVNVFDY) (Fig. 1A and Fig. S1 in Text S1). We noted that instead of a phenylalanine (F), the C-terminal residue in GRA6III is a tyrosine (Y), a residue not expected to be an appropriate anchor residue for L^d binding. To evaluate the ability of HF10 and HY10 to bind to L^d, we used an MHC I stabilization assay. TAP-deficient RMA-S cells display empty, unstable MHC I molecules and addition of exogenous peptides that can bind to MHC I can stabilize their expression on the cell surface, as read out by flow cytometry.
# RMA-S.L^d cells were a gift from T. Hansen (St-Louis, MO, USA). RMA-S.L^d cells were incubated at 37°C, 5% CO2 for 8 h to saturate the culture medium with CO2. The flask was sealed with parafilm and incubated at RT overnight. The next day, cells were washed with PBS and plated at 3×10^5 cells/well in a 96-W plate. Peptide was added to the cells in serial dilutions. The plate was incubated for 1 h at RT and 3 h at 37°C. Cells were stained with the 30-5-7 antibody (specific for conformed, peptide-bound L^d) and a phycoerythrine (PE)-coupled goat anti-mouse secondary antibody and analyzed by flow cytometry.
# [2] = tested on: CD8 T cells from spleens of T. gondii-infected B10.D2 mice; experiment: Ex vivo IFN-γ intracellular staining of splenocytes restimulated in vitro with peptide; type: cell-based; settings: splenocytes of B10.D2 mice 3 weeks post-infection with CEP+GRA6II; one representative mouse out of 3
# Description: as §1, §2
# type II parasite = settings: H2^d mice immunized with HF10-loaded bone marrow-derived dendritic cells; cited from earlier work
# [3] = tested on: naïve T. gondii-specific CD8α+ T cells in naive B10.D2 mice; experiment: Naïve T cell enumeration by tetramer-based enrichment and flow cytometry; set-up: species or system mouse
# Description: We next assessed whether abundance of peptide-specific T cells in the repertoire of naïve mice may control immunodominance. We employed a tetramer-based enrichment procedure, [24] to enumerate naïve T cells isolated from spleen and lymph nodes of uninfected mice and specific for each of the 3 epitopes. Numbers of T cell precursors were analyzed by flow cytometry after gating on a population of live dump^− (dump = B220, F4/80, MHC II) CD3^+ CD8α^+ cells (Fig. S4 in Text S1). […] Thus the immunodominance of HF10 cannot be explained by a high starting precursor frequency of specific T cells.
# Spleen and major lymph nodes from individual naïve B10.D2 mice were harvested. Single cell suspension was stained with PE-labeled (Prozyme) SM9:L^d, IF9:L^d or HF10:L^d tetramers (NIH tetramer facility). Tetramer enrichment was performed on each sample with anti-PE magnetic beads (Miltenyi Biotec) and each sample was stained with antibodies (BD Biosciences) for flow cytometry analysis. Total numbers of CD8α^+tetramer^+ T cells per mouse were determined as before, [24].
# [4] = MHC I stabilization on RMA-S.L^d cells, representative of 3 assays
# [5] = uninfected B10.D2 mice, tetramer enrichment
sequence,measurement,setting,value
"HPGSVNEFDF [HF10, decamer peptide derived from type II GRA6 C-terminus, presented by L^d MHC I]",Frequency of peptide-specific CD8 T cells in the spleen (peptide-loaded L^d dimers),[1],9.5%+/−3.7
same,Affinity for L^d relative to SM9 (in words),L^d MHC I molecule; [4],fell in the same range as the T. gondii subdominant peptide SM9
same,"Affinity for L^d, fold higher than that of IF9, QL9 and YL9",L^d MHC I molecule; [4],~10 fold
same,"Peptide concentration stabilizing L^d surface expression, fold lower compared to HY10","L^d MHC I molecule; RMA-S.L^d cells pulsed with serial peptide dilutions, 1 h RT and 3 h 37°C, 30-5-7 antibody, representative of 2 assays",1000 fold
same,Percentage of IFN-γ+ out of CD8+ cells after peptide restimulation,[2],24.7% and ~25%
same,Protection against lethal parasite challenge (in words),type II parasite,protects against lethal type II parasite challenge
same,Number of tetramer+ cells / mouse (naïve peptide-specific CD8α+ T cells),"[3]; spleen and lymph nodes of uninfected B10.D2 mice, peptide:L^d tetramer enrichment, mean, pooled from 3 independent experiments",400 cells / mouse
same,"Frequency of naïve HF10-specific CD8 T cells, fold lower than IF9-specific",[3]; [5],~3 fold
same,"Frequency of naïve HF10-specific CD8 T cells, fold lower than SM9-specific",[3]; [5],around 10 fold
